How the values were obtained:
mouse [1] = conditions: Combined chronic toxicity/carcinogenicity, b6c3f1, Oral, Feed, dose end: 24 month, group: systemic
mouse [2] = conditions: Subchronic oral toxicity in rodents, b6c3f1, Feed, dose end: 13 week, group: systemic
mouse [3] = conditions: Subchronic oral toxicity in rodents, Feed, dose end: 13 week, group: systemic, systemic / in life observation / body weight / body weight
rat [4] = conditions: Developmental neurotoxicity range-finding study; sprague dawley; Oral; Feed; group: cannot be grouped; developmental / offspring survival late / [other] / [other] + systemic / in life observation / body weight / litter weight
dog [5] = conditions: Chronic toxicity, beagle, Oral, Feed, dose end: 53 week, group: systemic
dog [6] = conditions: Subchronic oral toxicity in nonrodent, beagle, Gavage/Intubation, dose end: 18 week, group: systemic, systemic / in life observation / body weight / body weight + systemic / in life observation / clinical signs / ataxia + systemic / in life …
rat [7] = conditions: Developmental neurotoxicity study; sprague dawley; Oral; Gavage/Intubation; dose end: 63 PND; group: cannot be grouped; systemic / in life observation / body weight / offspring (pup) weight
mouse [8] = conditions: Chronic toxicity; b6c3f1; Oral; Feed; dose end: 80 week; group: systemic; systemic / in life observation / clinical signs / alopecia + systemic / in life observation / clinical signs / distended abdomens + systemic…
rat [9] = conditions: Subchronic oral toxicity in rodents, other, Feed, dose end: 6 week, group: systemic, systemic / in life observation / body weight / body weight + systemic / in life observation / mortality / mortality
mouse [10] = conditions: Subchronic oral toxicity in rodents, b6c3f1, Feed, dose end: 6 week, group: systemic, systemic / in life observation / mortality / mortality
rat [11] = conditions: Chronic toxicity; other; Oral; Feed; dose end: 74 week; group: systemic; systemic / in life observation / body weight / body weight + systemic / in life observation / clinical signs / convulsions + systemic / in …
mouse [12] = conditions: Carcinogenicity; Oral; Feed; dose end: 24 month; group: systemic; systemic / pathology microscopic / skin / fibrosarcoma + systemic / clinical chemistry / aminopyrine-n-demethylase / aminopyrine-n-…
rabbit = conditions: Prenatal developmental toxicity study, dutch, Oral, Gavage/Intubation, dose end: 18 GD
rat [13] = conditions: Combined chronic toxicity/carcinogenicity; fischer; Oral; Feed; dose end: 24 month; group: systemic; systemic / clinical chemistry / alanine aminotransferase (alt/sgpt) / alanine aminotransferase (alt/sgpt) + systemic / in life observation…
[14] = systemic / pathology microscopic / kidney / vacuolization
[15] = systemic / pathology microscopic / kidney / vacuolization + systemic / in life observation / body weight / body weight + systemic / …
[16] = systemic / in life observation / body weight / body weight
[17] = systemic / in life observation / clinical signs / pupillary function (dilation or constriction)
[18] = systemic / in life observation / clinical signs / pupillary function (dilation or constriction) + systemic / clinical chemistry / protein / …
[19] = group: developmental, developmental / developmental malformation / bone / [other] + developmental / developmental malformation / bone / full supernumerary + …
[20] = group: maternal, reproductive / reproductive performance / aborted / aborted + reproductive / reproductive performance / resorptions / resorptions + systemic…

O=C(O)c1cccc(Cl)n1 [6-Chloro-2-picolinic acid]
NOAEL (mouse [1]; [14]): 300 mg/kg/day
LOAEL (mouse [1]; systemic / pathology microscopic / kidney / vacuolization + systemic / in life observation / body weight / body weight): 900 mg/kg/day
LEL (mouse [1]; [15]): 900 mg/kg/day
NEL (mouse [1]; systemic / pathology microscopic / liver / carcinoma + systemic / organ weight / liver / absolute + systemic / organ weight / liver / …): 300 mg/kg/day
LEL (mouse [2]; [16]): 400 mg/kg/day
NEL (mouse [2]; [16]): 150 mg/kg/day
LOAEL (mouse [2]; [14]): 900 mg/kg/day
NOAEL (mouse [2]; [15]): 700 mg/kg/day
LEL (mouse [3]): 800 mg/kg/day
LOAEL (mouse [3]): 800 mg/kg/day
NEL (mouse [3]): 400 mg/kg/day
NOAEL (mouse [3]): 400 mg/kg/day

CC[C@H](C)[C@H]1O[C@]2(C=C[C@@H]1C)C[C@@H]1C[C@@H](C/C=C(\C)[C@@H](O[C@H]3C[C@H](OC)[C@@H](O[C@H]4C[C@H](OC)[C@@H](O)[C@H](C)O4)[C@H](C)O3)[C@@H](C)/C=C/C=C3\CO[C@@H]4[C@H](O)C(C)=C[C@@H](C(=O)O1)[C@]34O)O2.CO[C@H]1C[C@H](O[C@H]2[C@H](C)O[C@@H](O[C@@H]3/C(C)=C/C[C@@H]4C[C@@H](C[C@]5(C=C[C@H](C)[C@@H](C(C)C)O5)O4)OC(=O)[C@@H]4C=C(C)[C@@H](O)[C@H]5OC/C(=C\C=C\[C@@H]3C)[C@]54O)C[C@@H]2OC)O[C@@H](C)[C@@H]1O [Abamectin]
LEL (rat [4]): 0.876 mg/kg/day
LOAEL (rat [4]): 0.876 mg/kg/day
NEL (rat [4]): 0.604 mg/kg/day
NOAEL (rat [4]): 0.604 mg/kg/day
LEL (dog [5]; [17]): 0.5 mg/kg/day
LOAEL (dog [5]; [17]): 0.5 mg/kg/day
NEL (dog [5]; [18]): 0.25 mg/kg/day
NOAEL (dog [5]; [18]): 0.25 mg/kg/day
LEL (dog [6]): 0.5 mg/kg/day
LOAEL (dog [6]): 0.5 mg/kg/day
NEL (dog [6]): 0.25 mg/kg/day
NOAEL (dog [6]): 0.25 mg/kg/day
LEL (rat [7]): 0.4 mg/kg/day
LOAEL (rat [7]): 0.4 mg/kg/day
NEL (rat [7]): 0.2 mg/kg/day
NOAEL (rat [7]): 0.2 mg/kg/day

ClC1=C(Cl)[C@]2(Cl)[C@H]3[C@H]([C@@H]4C=C[C@H]3C4)[C@@]1(Cl)C2(Cl)Cl [Aldrin]
LEL (mouse [8]): 0.45 mg/kg/day
LOAEL (mouse [8]): > 0.9 mg/kg/day
NEL (mouse [8]): < 0.45 mg/kg/day
NOAEL (mouse [8]): ≥ 0.9 mg/kg/day
LEL (rat [9]): 8 mg/kg/day
LOAEL (rat [9]): > 16 mg/kg/day
NEL (rat [9]): 4 mg/kg/day
NOAEL (rat [9]): ≥ 16 mg/kg/day
LEL (mouse [10]): 6 mg/kg/day
LOAEL (mouse [10]): > 12 mg/kg/day
NEL (mouse [10]): 3 mg/kg/day
NOAEL (mouse [10]): ≥ 12 mg/kg/day
LEL (rat [11]): 1.5 mg/kg/day
LOAEL (rat [11]): 1.5 mg/kg/day
NEL (rat [11]): < 1.5 mg/kg/day
NOAEL (rat [11]): < 1.5 mg/kg/day

Cn1cc(-c2ccccc2)c(=O)c(-c2cccc(C(F)(F)F)c2)c1 [Fluridone]
LEL (mouse [12]): 50 mg/kg/day
LOAEL (mouse [12]): > 50 mg/kg/day
NEL (mouse [12]): 15 mg/kg/day
NOAEL (mouse [12]): ≥ 50 mg/kg/day
LEL (rabbit; [19]): 750 mg/kg/day
LOAEL (rabbit; [19]): > 750 mg/kg/day
NEL (rabbit; [19]): 300 mg/kg/day
NOAEL (rabbit; [19]): ≥ 750 mg/kg/day
LEL (rabbit; [20]): 300 mg/kg/day
LOAEL (rabbit; [20]): 300 mg/kg/day
NEL (rabbit; [20]): 125 mg/kg/day
NOAEL (rabbit; [20]): 125 mg/kg/day
LEL (rat [13]): 25.1 mg/kg/day
LOAEL (rat [13]): > 80.8 mg/kg/day
NEL (rat [13]): 7.65 mg/kg/day
NOAEL (rat [13]): ≥ 80.8 mg/kg/day
